In US20250127805A1, “ALCOHOLIC FORMULATION WITH A MIXTURE OF ALKALOIDS, PRENOL LIPIDS AND FLAVONOIDS” (PONTIFICIA UNIVERSIDAD JAVERIANA, priority 2023, published 2025) one finds tumor development data, which are given here for one compound.

This assay has as its system cancer cell line type 3 model. Briefly: Circulating blasts, tumor development and survival in type 3 model. To be noted: type 3 cancer cell line. The class given is in vivo. From the text: FIG. 12. Frequency circulating blasts in cancer cell line type 3 model.

For `COc1cccc2c1C(=O)c1c(O)c3c(c(O)c1C2=O)C[C@@](O)(C(=O)CO)C[C@@H]3O[C@H]1C[C@H](N)[C@H](O)[C@H](C)O1` [doxorubicin], the tumor development entry was “decrease in tumor development”.
